Measured values: ChEMBL document CHEMBL5584322, “Nonpeptidic Irreversible Inhibitors of SARS-CoV-2 Main Protease with Potent Antiviral Activity” (J Med Chem, 2024)
Active and inactive are the calls of the source. The rule behind the calls is not given here.

Experiments:
[1] = biological target: Replicase polyprotein 1ab (Severe acute respiratory syndrome coronavirus 2) (UniProt P0DTD1); assay: Inhibition of His-tagged recombinant SARS CoV-2 MPro expressed in Escherichia coli BL21(DE3) using Boc-Abu-Tle-Leu-Gln-AMC as substrate at 1 uM incubated for shorter period by fluorescence based assay relative to control
[2] = tested on: Severe acute respiratory syndrome-related coronavirus; assay: Inhibition of SARS CoV-1 MPro using Boc-Abu-Tle-Leu-Gln-AMC as substrate incubated for 10 mins by fluorescence based assay
[3] = biological target: T1, Replicase polyprotein 1ab (Severe acute respiratory syndrome coronavirus 2, UniProt P0DTD1); assay: Inhibition of full-length SARS CoV-2 MPro expressed in Escherichia coli BL21(DE3) using Boc-Abu-Tle-Leu-Gln-AMC as substrate incubated for 10 mins by fluorescence based assay
[4] = Stability of compound in 1 mM GSH at 100 uM incubated for 1 hr by HPLC-ESI-MS analysis; format: ADME
[5] = Stability of compound in 1 mM GSH at 10 uM incubated for 1 hr by HPLC-ESI-MS analysis; format: ADME
[6] = biological target: Replicase polyprotein 1ab (Severe acute respiratory syndrome coronavirus 2) (UniProt P0DTD1); assay: Inhibition of His-tagged recombinant SARS CoV-2 MPro expressed in Escherichia coli BL21(DE3) using Boc-Abu-Tle-Leu-Gln-AMC as substrate at 1 uM incubated for >6 hrs by fluorescence based assay relative to control
[7] = biological target: Replicase polyprotein 1ab (Severe acute respiratory syndrome coronavirus 2) (UniProt P0DTD1); assay: Inhibition of full-length SARS CoV-2 MPro expressed in Escherichia coli BL21(DE3) using Boc-Abu-Tle-Leu-Gln-AMC as substrate at 1 uM incubated for 10 mins by fluorescence based assay relative to control
[8] = Stability of compound in 1 mM GSH assessed as compound remaining at 10 to 100 uM incubated for 1 hr by HPLC-ESI-MS analysis; format: ADME; conditions: 1 mM GSH solution, dose 10-100 µM, read-out: Stability
[9] = biological target: T1, Replicase polyprotein 1ab; assay: Inhibition of SARS CoV-2 MPro
Calu-3 [10] = assay: Cytotoxicity against human Calu-3 cells at 10 uM; format: toxicity, cell-based; conditions: calu-3, 10 µM
SARS-CoV-2 = assay: microbe, parasite or virus in culture; conditions: Severe acute respiratory syndrome coronavirus 2, Calu-3
[11] = Stability of compound in 1 mM GSH assessed as compound remaining at 100 uM incubated for 1 hr by HPLC-ESI-MS analysis; format: ADME; conditions: 1 mM GSH solution, read-out: Stability
Calu-3 [12] = assay: (§1) Cytotoxicity against human Calu-3 cells; format: toxicity, cell-based; conditions: calu-3, 10 µM, dose 10 µM
[13] = as §1; format: toxicity, cell-based; conditions: Calu-3 cells
[14] = Inhibition of MERS CoV MPro using Boc-Abu-Tle-Leu-Gln-AMC as substrate incubated for 10 mins by fluorescence based assay; parameters: species or system Middle East respiratory syndrome-related coronavirus

O=C(Oc1cncc(Cl)c1)c1ccc(Cl)cc1Cl
inhibition [1]: 100%
inhibition [2]: Active
IC50 [3]: 0.108 µM

O=C(Oc1cncc(Cl)c1)c1ccc(OCc2ccccc2)cc1F
inhibition [2]: inactive
Stability [4]: Stable
Stability [5]: Unstable
IC50 [3]: 0.322 µM
inhibition [6]: 100%

O=C(Oc1cncc(Cl)c1)c1ccc(Cl)cc1F
inhibition [1]: 100%
inhibition [2]: inactive
IC50 [3]: 0.0457 µM

O=C(Oc1cncc(Br)c1)c1ccc(Cl)cc1Cl
inhibition [1]: 100%
IC50 [3]: 0.0845 µM

O=C(Oc1cncc(Cl)c1)c1ccccc1-c1ccccc1
inhibition [7]: 6%
Stability [4]: Stable
Stability [5]: Unstable
IC50 [3]: > 1 µM

O=C(Oc1cncc(Cl)c1)c1ccc(I)cc1F
inhibition [2]: inactive
IC50 [3]: 0.0149 µM

O=C(Oc1cncc(Br)c1)c1ccc(OCc2ccccc2)cc1F
IC50 [3]: 0.232 µM
inhibition [6]: 100%

O=C(Oc1cncc(Cl)c1)c1c(F)cccc1F
inhibition [2]: inactive
IC50 [3]: 0.0292 µM

CCCCCCCOc1ccc(C(=O)Oc2cncc(Cl)c2)cc1
inhibition [7]: 8%
remaining at 1 h, up to 100 µM [8]: 50%
Stability [4]: Stable
IC50 [3]: > 1 µM

O=C(Oc1cncc(Cl)c1)c1ccccc1
IC50 [3]: 0.0404 µM

COc1cccc(C(=O)Oc2cncc(Br)c2)c1
IC50 [3]: 0.0199 µM

O=C(Oc1cncc(Cl)c1)c1cccnc1
IC50 [3]: 0.758 µM

COc1ccc(F)c(C(=O)Oc2cncc(Cl)c2)c1F
IC50 [3]: 0.0303 µM

O=C(Oc1cncc(Cl)c1)c1ccccc1F
inhibition [2]: Active
IC50 [3]: 0.0259 µM

CNc1ccc(C(=O)Oc2cncc(Cl)c2)cc1
remaining at 1 h, up to 100 µM [8]: 50%
Stability [4]: Stable
IC50 [3]: 3.94 µM

O=C(Oc1cncc(Cl)c1)c1cccs1
Ki [9]: 0.0811 µM

O=C(Oc1cncc(Br)c1)c1ccc(Cl)cc1F
inhibition [1]: 100%
IC50 [3]: 0.0356 µM

COc1cccc(C(=O)Oc2cncc(Br)c2)c1OC
IC50 [3]: 0.0782 µM
inhibition [6]: 100%

O=C(Oc1cncc(Cl)c1)c1ccc(Cl)c(Cl)c1
inhibition [2]: Active
IC50 [3]: 0.0964 µM

COc1ccc(C(=O)Oc2cncc(Cl)c2)cc1
remaining at 1 h, up to 100 µM [8]: 50%
inhibition [2]: inactive
Stability [4]: Stable
Activity (Calu-3 [10]): Non-Toxic
IC50 [3]: 0.164 µM
EC50 (SARS-CoV-2): 0.0108 µM
inhibition [6]: 100%

O=C(Oc1cncc(Cl)c1)c1cccc(Cl)c1Cl
inhibition [2]: Active
IC50 [3]: 0.126 µM

N#Cc1ccc(C(=O)Oc2cncc(Cl)c2)c(F)c1
IC50 [3]: 0.047 µM

COc1cccc(C(=O)Oc2cncc(Cl)c2)c1OC
inhibition [2]: Active
IC50 [3]: 0.0845 µM
inhibition [6]: 100%

COc1ccc(C(=O)Oc2cncc(Cl)c2)cc1Cl
Stability [4]: Stable
Stability [5]: Unstable
IC50 [3]: 0.247 µM

O=C(Oc1cncc(Br)c1)c1ccccc1F
IC50 [3]: 0.0107 µM

O=C(Oc1cncc(Cl)c1)c1cc(Cl)cc(Cl)c1
IC50 [3]: 0.133 µM

CCOc1ccc(C(=O)Oc2cncc(Cl)c2)cc1
remaining at 1 h, up to 100 µM [8]: 50%
IC50 [3]: 0.329 µM

O=C(Oc1cncc(Cl)c1)c1ccc(Br)cc1F
inhibition [2]: inactive
IC50 [3]: 0.0349 µM

CCOc1ccc(C(=O)Oc2cncc(Br)c2)c(F)c1
Stability [5]: Unstable
IC50 [3]: 0.107 µM
inhibition [6]: 100%

O=C(Oc1cncc(Br)c1)c1cccc(Cl)c1
IC50 [3]: 0.0505 µM

Nc1ccc(C(=O)Oc2cncc(Cl)c2)c(F)c1
Stability [4]: Stable
IC50 [3]: 0.943 µM

O=C(Oc1cncc(Cl)c1)c1cc(F)cc(F)c1
IC50 [3]: 0.0383 µM

O=C(Oc1cncc(Cl)c1)c1ccccc1Cl
IC50 [3]: 0.0604 µM

O=C(Oc1cncc(Cl)c1)c1ccc(I)cc1
inhibition [2]: inactive
Stability [5]: Unstable
IC50 [3]: 0.0912 µM

COc1ccccc1C(=O)Oc1cncc(Cl)c1
inhibition [2]: inactive
IC50 [3]: 0.264 µM

O=C(Oc1cncc(Br)c1)c1ccc(I)cc1F
Stability [4]: Stable
IC50 [3]: 0.0335 µM

O=C(Oc1cncc(Br)c1)c1ccccc1Cl
IC50 [3]: 0.0392 µM

CC(C)(C)[C@H](NC(=O)C(F)(F)F)C(=O)N1C[C@H]2[C@@H]([C@H]1C(=O)N[C@H](C#N)C[C@@H]1CCNC1=O)C2(C)C
Stability [4]: Stable
Stability [5]: Stable

O=C(Oc1cncc(Cl)c1)c1ccc(-c2cccnc2)cc1
IC50 [3]: 0.137 µM

COc1cc(F)ccc1C(=O)Oc1cncc(Cl)c1
IC50 [3]: 0.249 µM

O=C(Oc1cncc(Br)c1)c1ccc(Cl)c(Cl)c1
IC50 [3]: 0.0375 µM

O=C(Oc1cncc(Br)c1)c1ccccc1
IC50 [3]: 0.0405 µM

O=C(Oc1cncc(Br)c1)c1ccc(Cl)cc1
IC50 [3]: 0.0957 µM

O=C(Oc1cncc(Cl)c1)c1ccncc1
IC50 [3]: 0.725 µM

O=C(Oc1cncc(Cl)c1)c1cccc(F)c1
IC50 [3]: 0.0464 µM

O=C(Oc1cncc(Cl)c1)c1cccc(Cl)c1
IC50 [3]: 0.0551 µM

O=C(Oc1cncc(Cl)c1)c1cccc2[nH]ccc12
Stability [5]: Stable
remaining at 1 h, 100 µM [11]: > 70%

CCOc1ccc(C(=O)Oc2cncc(Cl)c2)c(F)c1
inhibition [2]: inactive
Activity (Calu-3 [10]): Non-Toxic
IC50 [3]: 0.0474 µM
EC50 (SARS-CoV-2): 0.00268 µM
inhibition [6]: 100%

COc1c(Cl)ccc(C(=O)Oc2cncc(Cl)c2)c1F
IC50 [3]: 0.0707 µM

Cc1cc(Cl)ccc1C(=O)Oc1cncc(Cl)c1
IC50 [3]: 3.4 µM

O=C(Oc1cncc(Cl)c1)c1cccc(-c2ccccc2)c1
Stability [4]: Stable
Stability [5]: Unstable
IC50 [3]: 0.117 µM

COc1ccc(C(=O)Oc2cncc(Cl)c2)c(OC)c1
Stability [4]: Stable
IC50 [3]: 1.67 µM

O=C(Oc1cncc(Cl)c1)c1ccc(Cl)cc1
IC50 [3]: 0.218 µM

COc1ccc(C(=O)Oc2cncc(Br)c2)cc1
Stability [4]: Stable
Activity (Calu-3 [10]): Non-Toxic
IC50 [3]: 0.0963 µM
EC50 (SARS-CoV-2): 1.86 µM
inhibition [6]: 100%

O=C(Oc1cncc(Cl)c1)c1ccc(F)cc1
IC50 [3]: 0.119 µM

N=C(N)Nc1ccc(C(=O)Oc2cncc(Cl)c2)cc1
IC50 [3]: 0.0659 µM

O=C(Oc1cncc(Cl)c1)c1ccc(-c2ccccc2)cc1
remaining at 1 h, up to 100 µM [8]: 50%
inhibition [2]: inactive
Stability [4]: Stable
IC50 [3]: 0.15 µM
EC50 (SARS-CoV-2): 0.0587 µM
Activity (Calu-3 [12]): Dose-Dependent Effect
CC50 [13]: 14.7 µM

COc1cccc(C(=O)Oc2cncc(Cl)c2)c1
inhibition [2]: Active
Stability [5]: Unstable
IC50 [3]: 0.00513 µM
IC50 [14]: 0.112 µM

O=C(Oc1cncc(Cl)c1)c1cc2cc(Cl)ccc2[nH]1
Stability [5]: Unstable
remaining at 1 h, 100 µM [11]: > 70%
